In US20150374673A1, “Combination Therapy for the Treatment of Nosocomial Pneumonia” (priority 2013, published 2015):
Read-outs that look alike come from different tables or passages of the source.

How the values were obtained:
[1] = Penetration to human ELF; type: in vivo; conditions: epithelial lining fluid (ELF)
[2] = tested on: E. faecalis; assay: Initial MIC, microbroth dilution (CLSI), avibactam 4 mg/L; type: cell-based
Text: (§1) All MIC determinations including those performed in the checkerboard assay were done in cation-adjusted Mueller-Hinton broth (purchased from Becton Dickinson, Oxford UK). […]

[3] = tested on: E. cloacae; assay: as above; type: cell-based; conditions: Enterobacter cloacae
Text: as §1

[4] = tested on: S. aureus; assay: as above; type: cell-based; conditions: Staphylococcus aureus, read-out: MIC
Text: as §1

[5] = tested on: Gram-negative isolates; assay: MIC alone compared with MIC in presence of Cmax and 0.5×Cmax of vancomycin and linezolid, all Gram-negative isolates; type: cell-based; conditions: with Cmax and 0.5×Cmax of vancomycin and linezolid
Method: (§2) Initial MIC data were determined by microbroth dilution methods as recommended by CLSI (2012b). Checkerboards were made in accordance with the method given by Pillai et. al., ? Antimicrobial Combinations in Antibiotics, LABORATORY MEDICINE (Lorian Ed., 3rd Ed. (2003)) p. 365-440 as per standard microbroth dilution tests but with agents in combination. […] A final avibactam concentration of 4 mg/L was used throughout the study. Antibacterial agents were combined into microtitre plates using the Evolution III liquid handling system.

[6] = tested on: P. aeruginosa; assay: MIC of the P. aeruginosa isolates used in the in vivo efficacy studies; type: cell-based; conditions: Pseudomonas aeruginosa
[7] = tested on: all isolates (Enterobacteriaceae, P. aeruginosa, S. aureus, E. faecalis); assay: Checkerboard assay, mean FICI over all isolates; type: cell-based
Method: All MIC determinations including those performed in the checkerboard assay were done in cation-adjusted Mueller-Hinton broth (purchased from Becton Dickinson, Oxford UK).
as §2
Checkerboard plates were inoculated and incubated in accordance with CLSI guidelines (2012b) at 35±2° C. in ambient air for 16-20 h. MICs were recorded the following day as the lowest concentration or combination of concentrations required to inhibit all visible growth. From the MIC data, FICIs were calculated for each checkerboard according to the method of Meletiadis et. al., Defining Fractional Inhibitory Concentration Index Cutoffs for Additive Interactions Based on Self-Drug Additive Combinations, Monte Carlo Simulation Analysis and in vitro-in vivo Correlation Data for Antifungal Drug Combinations Against Aspergillus fumigatus, AAC 54:602-09 (2010).
FICI=FICA+FICB=(CA/MICA)+(CB/MICB)
As each checkerboard gives a number of FICI values, an arithmetic mean is calculated from all values to give the mean FICI for two agents combined against one isolate. Mean FICIs were interpreted by the following criteria given by Odds (2003) which are now the accepted criteria by most journals: […]

[8] = with Col, Gram-negative isolates
[9] = with Lzd, Gram-positive isolates
[10] = with Van, Gram-positive isolates

NC(=O)[C@@H]1CC[C@@H]2CN1C(=O)N2OS(=O)(=O)[O-].[Na+] [avibactam, [(2S,5R)-2-carbamoyl-7-oxo-1,6-diazabicyclo[3.2.1]octan-6-yl]hydrogen sulfate]
Kp [1]: ~0.3

CC(C)(O/N=C(\C(=O)N[C@@H]1C(=O)N2C(C(=O)[O-])=C(C[n+]3ccccc3)CS[C@H]12)c1csc(N)n1)C(=O)O [ceftazidime, (6R,7R)-7-[[(2Z)-2-(2-amino-1,3-thiazol-4-yl)-2-(1-hydroxy-2-methyl-1-oxopropan-2-yl)oxyiminoacetyl]amino]-8-oxo-3-(pyridin-1-ium-1-ylmethyl)-5-thia-1-azabicyclo[4.2.0]oct-2-ene-2-carboxylate pentahydrate]
MIC ([2]; Enterococcus faecalis): 256 µg/mL
MIC ([2]; Enterococcus faecalis, isolate 25 E. faecalis Basal MICs, read-out: MIC): > 512 µg/mL
MIC ([2]; isolate 27 E. faecalis Basal MICs): 256 µg/mL
MIC ([3]; isolate 1 E. cloacae Basal MICs, read-out: MIC): 0.12 µg/mL
MIC ([3]; isolate 2 E. cloacae Derepressed AmpC): 256 µg/mL
MIC ([3]; isolate 3 E. cloacae Derepressed AmpC): 128 µg/mL
MIC ([4]; isolate 22 S. aureus Basal MICs): 8 µg/mL
MIC ([4]; isolate 23 S. aureus Basal MICs, Penicillinase+): 16 µg/mL
MIC ([4]; isolate 24 S. aureus Basal MICs, Penicillinase+): 8 µg/mL
MIC alone and in combination [5]: remained within one doubling dilution in all cases
MIC ([6]; P. aeruginosa PSA 1-25): 128 µg/mL
MIC ([6]; P. aeruginosa PSA 1-29): 32 µg/mL
MIC ([6]; P. aeruginosa PSA 2-69): 64 µg/mL
MIC ([6]; P. aeruginosa PSA 3-9): > 128 µg/mL
MIC ([6]; P. aeruginosa PSA 4-32): 32 µg/mL
MIC ([6]; P. aeruginosa PSA 4-36): 64 µg/mL
MIC ([6]; P. aeruginosa PSA 4-39): 32 µg/mL
MIC ([6]; P. aeruginosa PSA 4-84): 64 µg/mL
MIC ([6]; P. aeruginosa PSA 7-6): 128 µg/mL
MIC ([6]; P. aeruginosa PSA 8-16): 64 µg/mL
MIC ([6]; P. aeruginosa PSA 11-54): 32 µg/mL
MIC ([6]; P. aeruginosa PSA 14-28): 128 µg/mL
MIC ([6]; P. aeruginosa PSA 22): 64 µg/mL
MIC ([6]; P. aeruginosa PSA 24-2): 32 µg/mL
MIC ([6]; P. aeruginosa PSA 28-19): 128 µg/mL
MIC ([6]; P. aeruginosa PSA 37-8): 64 µg/mL
MIC ([6]; P. aeruginosa PSA 856): 8 µg/mL
MIC ([6]; P. aeruginosa PSA 968): 32 µg/mL
MIC ([6]; P. aeruginosa PSA 971): 16 µg/mL
MIC ([6]; P. aeruginosa PSA 1382): 128 µg/mL
MIC ([6]; P. aeruginosa PSA 1383): 64 µg/mL
MIC ([6]; P. aeruginosa PSA 1384): 64 µg/mL
MIC ([6]; P. aeruginosa PSA 1386): 128 µg/mL
MIC ([6]; P. aeruginosa PSA 1387): 32 µg/mL
MIC ([6]; P. aeruginosa PSA 1388): 128 µg/mL
MIC ([6]; P. aeruginosa PSA 1389): 64 µg/mL
MIC ([6]; P. aeruginosa PSA 1391): 128 µg/mL
MIC ([6]; P. aeruginosa PSA 1394): 64 µg/mL
interaction, synergistic or antagonistic, with any other antibacterial agent ([7]; tobramycin, levofloxacin, vancomycin, linezolid, tigecycline, colistin): No interaction
Mean FICI range high [7, 8]: 1.66
Mean FICI range low [7, 8]: 0.85
Mean FICI range high ([7]; with Lev, all isolates): 1.33
Mean FICI range low ([7]; with Lev, all isolates): 0.78
Mean FICI range high [7, 9]: 1.64
Mean FICI range low [7, 9]: 0.99
Mean FICI range high ([7]; with Tig, all isolates): 1.99
Mean FICI range low ([7]; with Tig, all isolates): 0.73
Mean FICI range high ([7]; with Tob, all isolates): 1.60
Mean FICI range low ([7]; with Tob, all isolates): 0.64
Mean FICI range high [7, 10]: 1.63
Mean FICI range low [7, 10]: 0.99
